Assay results from patent US20220372013A2, “PIPERIDINE-2,6-DIONE DERIVATIVES AND CROHN'S DISEASE TREATING” (Tianjin Hemay Pharmaceutical Sci-Tech Co., Ltd, priority 2016, published 2022).
Marks after values point to notes of the source that are not given here.

Legend:
[1] = tested on: DNBS-Induced Inflammatory Bowel Disease Models in Rats; test: Biological Example 2: DNBS-induced inflammatory bowel disease models in rats; format: in vivo, Wistar rats; conditions: for Adhesion Degree / Colon Length / Colon Weight / Ulcer Area: sixth day, Mean ± SD
Description: 110 male Wistar rats were fasted for 40 hours. A 5% glucose injection (10 mL/Kg) was administered subcutaneously during fasting. 48 rats with normal conditions and moderate body weight were selected from the fasting rats. The animals were randomly divided into […] according to the body weight: normal control group, model control group, sulfasalazine group (300 mg/Kg), dexamethasone group (0.1 mg/Kg), the compound in Example 26 group (30 mg/kg) and the compound in Example 27 group (30 mg/kg), with 8 rats in each group. The animals were anesthetized with isoflurane. A specially made gavage device (made by a rat gavage device having the diameter of 2 mm, which was nested on a mouse gavage device having the diameter of 1 mm) was slowly inserted into the enteric cavity at 8 cm from the anus. The model control group, the compound in Example 26 group and the compound in Example 27 group were administered with 0.5 mL of 50 mg/mL DNBS in 30% ethanol solution. The normal control group was administered with 0.5 mL of 30% ethanol solution. The animals were inverted in anesthesia for 15 minutes after the gavage device was removed. The day when the model was prepared was the first day of the experiment. After 4 hours of DNBS induction, the corresponding drug or the corresponding volume of 1% CMC-Na was administered once per day. On the sixth day of the experiment, the animals were euthanized to observe the results of each index so as to score the colon adhesion degree, measure the length of colon and ulcer area, weigh colon and calculate the colon weight to length ratio.
The compound in Example 26 and Example 27, sulfasalazine and dexamethasone: Preparation Method: Suspended with 1% CMC-Na, and prepared when it was needed.
Levene's Test for homogeneity of data was performed with Spss. Where the data were homogeneous (P>0.05), one-way ANOVA LSD test was performed. Where the analysis of variance was significant (P≤0.05), Dunnett's multiple comparison (parameter method) was performed. Where the results of Levene's Test were significant (P≤0.05), Kruskal-Wallis nonparametric test was performed. Where the results of Kruskal-Wallis nonparametric test were significant (P≤0.05), Mann-Whitney U test was performed for pairwise comparison.

mice = test: Biological Example 5: acute toxicity experiment of single oral administration in mice; format: in vivo; conditions: single oral 1000 mg/Kg, Mean ± SD
Summary of the method: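 Fasted ICR mice (19-21 g, three females and three males per group) received a single oral dose of 1000 mg/Kg, given first to one mouse of each sex and then to the remaining four. Behaviour, nervous and autonomic signs, and deaths were recorded over 0-15 min. Animals were then observed for 7 days with daily body weight.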

[2] = tested on: DNBS-Induced Inflammatory Bowel Disease Models in Rats; test: Biological Example 3: DNBS-induced inflammatory bowel disease models in rats; format: in vivo, Wistar rats; conditions: 30 mg/Kg i.g. qd × 7; for Adhesion Degree of Colon / Colon weight to length ratio / Inhibitory rate of colon adhesion / Inhibitory rate of ulcer area of colon / Inhibitory rate of weight increase per length / Ulcer area of colon: day 7; for Body weight: Mean ± SD
Description: 102 male Wistar rats were fasted for 40 hours. A 5% glucose injection (10 mL/Kg) was administered subcutaneously during fasting. 72 rats with normal conditions and moderate body weight were selected from the fasting rats. The animals were randomly divided into 9 groups according to the body weight (see Table 9. Grouped Table).
The animals were anesthetized with ether after 40 hours fasting. A specially made gavage device was slowly inserted into the enteric cavity at 8 cm from the anus. The model control group and each test group were administered with 0.5 mL of 50 mg/mL DNBS in 30% ethanol solution. The normal control group was administered with 0.5 mL of 30% ethanol solution. The animals were inverted in anesthesia for 15 minutes. The day when the model was prepared was day 0 of the experiment. After 4 hours of DNBS induction, the corresponding drug or the corresponding volume of 1% CMC-Na was administered once per day. On day 7 of the experiment, the animals were euthanized to score the colon adhesion degree, measure the length of colon and ulcer area, weigh colon and calculate the colon weight to length ratio.
One-way ANOVA analysis of the length of colon and colon weight per length of rats was performed by SPSS22. Statistical analyses between groups were performed. The adhesion degree was scored. Mann-Whitney U non-parametric test was performed on ulcer area. Statistical analyses between groups were performed.
Calculation Formula of Inhibitory rate of weight increase per length: (Colon weight to length ratio in model group−Colon weight to length ratio in administration group)/(Colon weight to length ratio in model group−Colon weight to length ratio in blank group)

## COCCCN1C(=O)CCC(N2C(=O)c3cccc(N)c3C2=O)C1=O (centres unmarked) [Example 26, 4-amino-2-(1-(3-methoxypropyl)-2,6-dioxopiperidin-3-yl)isoindolin-1,3-dione]
[1]; 30 mg/Kg i.g. qd × 6
  Adhesion Degree: 0.3 ± 0.5 Points
  Colon Length: 13.7 ± 1.4 cm
  Colon Weight: 1628.3 ± 185.5 mg
  Ulcer Area: 1.1 ± 0.9## cm^2
[1]; 30 mg/kg i.g. qd × 6
  therapeutic effects on the model (in words): good therapeutic effects
[1]; fourth day of the experiment, compared with model control group, doses as in Table 7
  growth rate of the body weight (in words): higher than that in the model control group
mice; Female mice, Day 1
  Daily Body Weight: 18.0 ± 0.7 g
mice; Female mice, Day 2
  Daily Body Weight: 21.9 ± 0.3 g
mice; Female mice, Day 3
  Daily Body Weight: 22.1 ± 0.5 g
mice; Female mice, Day 4
  Daily Body Weight: 22.4 ± 0.2 g
mice; Female mice, Day 5
  Daily Body Weight: 22.7 ± 0.3 g
mice; Female mice, Day 6
  Daily Body Weight: 22.6 ± 0.3 g
mice; Female mice, Day 7
  Daily Body Weight: 22.4 ± 0.2 g
mice; Male mice, Day 1
  Daily Body Weight: 18.7 ± 0.8 g
mice; Male mice, Day 2
  Daily Body Weight: 23.4 ± 0.5 g
mice; Male mice, Day 3
  Daily Body Weight: 25.0 ± 0.6 g
mice; Male mice, Day 4
  Daily Body Weight: 26.6 ± 1.4 g
mice; Male mice, Day 5
  Daily Body Weight: 27.3 ± 1.3 g
mice; Male mice, Day 6
  Daily Body Weight: 28.3 ± 1.3 g
mice; Male mice, Day 7
  Daily Body Weight: 28.8 ± 1.4 g

## C[C@@H]1C[C@H]2[C@@H]3CCC4=CC(=O)C=C[C@]4(C)[C@@]3(F)[C@@H](O)C[C@]2(C)[C@@]1(O)C(=O)CO [Dexamethasone, dexamethasone, reference compound]
[1]; 0.1 mg/Kg i.g. qd × 6
  Adhesion Degree: 0.3 ± 0.5 Points
  Colon Length: 14.2 ± 0.9 cm
  Colon Weight: 1496.0 ± 450.0 mg
  Ulcer Area: 1.4 ± 1.5# cm^2

## COCCCCN1C(=O)CCC(N2C(=O)c3cccc(N)c3C2=O)C1=O (centres unmarked) [Example 22, 4-amino-2-(1-(4-methoxybutyl)-2,6-dioxopiperidin-3-yl)isoindolin-1,3-dione]
[2]
  Adhesion Degree of Colon: 0.8 ± 0.9 point
  Colon weight to length ratio: 112 ± 40 mg/cm
  Inhibitory rate of colon adhesion: 52.9# %
  Inhibitory rate of ulcer area of colon: 40.5%
  Inhibitory rate of weight increase per length: 54.4# %
  Ulcer area of colon: 1.84 ± 2.59 cm^2
[2]; Day 0
  Body weight: 137.5 ± 7.2 g
[2]; Day 1
  Body weight: 137.0 ± 9.0 g
[2]; Day 2
  Body weight: 139.7 ± 11.2 g
[2]; Day 3
  Body weight: 144.1 ± 12.7 g
[2]; Day 4
  Body weight: 152.6 ± 20.0 g
[2]; Day 5
  Body weight: 162.7 ± 19.0 g
[2]; Day 6
  Body weight: 170.5 ± 17.7 g
[2]; Day 7
  Body weight: 178.3 ± 20.7 g
mice; Female mice, Day 1
  Daily Body Weight: 18.5 ± 0.6 g
mice; Female mice, Day 2
  Daily Body Weight: 21.8 ± 0.3 g
mice; Female mice, Day 3
  Daily Body Weight: 22.9 ± 0.4 g
mice; Female mice, Day 4
  Daily Body Weight: 24.0 ± 1.0 g
mice; Female mice, Day 5
  Daily Body Weight: 25.0 ± 0.4 g
mice; Female mice, Day 6
  Daily Body Weight: 25.3 ± 0.6 g
mice; Female mice, Day 7
  Daily Body Weight: 25.6 ± 0.2 g
mice; Male mice, Day 1
  Daily Body Weight: 17.1 ± 0.3 g
mice; Male mice, Day 2
  Daily Body Weight: 22.9 ± 0.8 g
mice; Male mice, Day 3
  Daily Body Weight: 23.5 ± 0.9 g
mice; Male mice, Day 4
  Daily Body Weight: 25.2 ± 0.5 g
mice; Male mice, Day 5
  Daily Body Weight: 27.2 ± 1.9 g
mice; Male mice, Day 6
  Daily Body Weight: 27.1 ± 1.8 g
mice; Male mice, Day 7
  Daily Body Weight: 27.4 ± 1.9 g

## COCCN1C(=O)CCC(N2C(=O)c3cccc(F)c3C2=O)C1=O (centres unmarked) [Example 4, 4-fluoro-2-(1-(2-methoxyethyl)-2,6-dioxopiperidin-3-yl)isoindolin-1,3-dione]
[2]
  Adhesion Degree of Colon: 0.6 ± 0.7 point
  Colon weight to length ratio: 125 ± 34 mg/cm
  Inhibitory rate of colon adhesion: 64.7## %
  Inhibitory rate of ulcer area of colon: 81.2# %
  Inhibitory rate of weight increase per length: 38.0%
  Ulcer area of colon: 0.58 ± 0.78# cm^2
[2]; Day 0
  Body weight: 137.1 ± 6.2 g
[2]; Day 1
  Body weight: 136.2 ± 4.1 g
[2]; Day 2
  Body weight: 138.2 ± 6.9 g
[2]; Day 3
  Body weight: 141.1 ± 8.8 g
[2]; Day 4
  Body weight: 151.8 ± 13.4 g
[2]; Day 5
  Body weight: 162.5 ± 13.0 g
[2]; Day 6
  Body weight: 170.8 ± 13.0 g
[2]; Day 7
  Body weight: 181.0 ± 12.2 g
mice; Female mice, Day 1
  Daily Body Weight: 18.4 ± 0.4 g
mice; Female mice, Day 2
  Daily Body Weight: 21.8 ± 0.5 g
mice; Female mice, Day 3
  Daily Body Weight: 23.2 ± 0.6 g
mice; Female mice, Day 4
  Daily Body Weight: 23.5 ± 1.2 g
mice; Female mice, Day 5
  Daily Body Weight: 24.7 ± 0.9 g
mice; Female mice, Day 6
  Daily Body Weight: 24.2 ± 1.2 g
mice; Female mice, Day 7
  Daily Body Weight: 24.0 ± 0.8 g
mice; Male mice, Day 1
  Daily Body Weight: 17.6 ± 0.2 g
mice; Male mice, Day 2
  Daily Body Weight: 22.2 ± 0.3 g
mice; Male mice, Day 3
  Daily Body Weight: 23.6 ± 0.6 g
mice; Male mice, Day 4
  Daily Body Weight: 24.7 ± 0.6 g
mice; Male mice, Day 5
  Daily Body Weight: 26.7 ± 0.4 g
mice; Male mice, Day 6
  Daily Body Weight: 27.6 ± 0.8 g
mice; Male mice, Day 7
  Daily Body Weight: 28.2 ± 0.1 g
